The source of these data is patent US6506772B1, “Substituted [1,2,4]triazolo[1,5a]pyridine derivatives with activity as adenosine receptor ligands” (Hoffmann-La Roche Inc., priority 2000, dated 2003).

The structures appear in SMILES notation.

Assay [1] addresses T1, human adenosine A2A receptor (Homo sapiens, UniProt P29274).
T1 construct: expressed in transfected cells; host or cells: CHO cells, Semliki Forest virus expression system; membrane preparation
Description: Human adenosine A2A receptor [3H]-SCH-58261 binding assay. As to conditions: for Ki: affinity to human adenosine A2A receptor, read-out: Ki HA2A; for selectivity (A1/A2a): calculated ratio of the affinity to the HA1 receptor to the HA2a receptor.

The next assay has as its target T2, HA1 adenosine receptor (Homo sapiens, UniProt P30542).
T2 sequence (P30542 1-326): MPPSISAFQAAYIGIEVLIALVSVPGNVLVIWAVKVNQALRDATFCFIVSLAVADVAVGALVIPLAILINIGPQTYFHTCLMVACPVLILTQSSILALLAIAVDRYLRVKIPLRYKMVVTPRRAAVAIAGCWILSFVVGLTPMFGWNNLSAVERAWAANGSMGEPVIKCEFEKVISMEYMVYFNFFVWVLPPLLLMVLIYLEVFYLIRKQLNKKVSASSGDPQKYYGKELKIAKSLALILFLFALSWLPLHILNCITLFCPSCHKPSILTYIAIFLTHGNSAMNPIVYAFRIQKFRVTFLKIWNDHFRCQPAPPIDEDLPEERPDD
Description: Human adenosine A1 receptor affinity (Ki hA1). The assay is classed as binding. As to conditions: affinity to human adenosine A1 receptor.

T1 sequence (P29274 whole entry): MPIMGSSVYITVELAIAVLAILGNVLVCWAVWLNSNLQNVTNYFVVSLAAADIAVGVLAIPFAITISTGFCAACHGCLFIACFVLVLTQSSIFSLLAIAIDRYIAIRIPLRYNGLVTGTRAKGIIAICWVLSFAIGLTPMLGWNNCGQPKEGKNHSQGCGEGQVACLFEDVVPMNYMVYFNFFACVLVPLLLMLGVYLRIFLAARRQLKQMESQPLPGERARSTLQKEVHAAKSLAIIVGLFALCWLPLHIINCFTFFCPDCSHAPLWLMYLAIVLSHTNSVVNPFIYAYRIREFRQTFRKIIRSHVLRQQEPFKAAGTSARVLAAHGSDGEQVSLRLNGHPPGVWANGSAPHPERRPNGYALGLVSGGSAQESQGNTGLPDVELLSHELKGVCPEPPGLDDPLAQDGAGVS

For `Cc1ccc(-c2nc3cc(C(=O)NCc4ccccc4)cc(N)n3n2)s1` [Example 197, 5-Amino-2-(5-methyl-thiophen-2-yl)-[1,2,4]triazolo[1,5-a]pyridine-7-carboxylic acid benzylamide], the figures for the Ki (in assay [1]; at HA1 adenosine receptor) were 178 nM and 90.3 nM, respectively. For the same compound, in assay [1], the “selectivity (A1/A2a)” value was 0.5.

For the compound `Cc1ccc(-c2nc3cc(C(=O)NC(C)c4ccccc4)cc(N)n3n2)s1` (stereo not drawn) [Example 198, 5-Amino-2-(5-methyl-thiophen-2-yl)-[1,2,4]triazolo[1,5-a]pyridine-7-carboxylic acid (1-phenyl-ethyl)-amide], in assay [1], the Ki came out at 174 nM and the “selectivity (A1/A2a)” value is 0.6. The affinity on HA1 adenosine receptor, expressed as Ki, was 112 nM.

`Cc1ccc(-c2nc3cc(C(=O)NCc4ccccc4Cl)cc(N)n3n2)s1` [Example 199, 5-Amino-2-(5-methyl-thiophen-2-yl)-[1,2,4]triazolo[1,5-a]pyridine-7-carboxylic acid 2-chloro-benzylamide]: in assay [1], the Ki turned out to be 30.2 nM and the “selectivity (A1/A2a)” value is 1.2. Also, on HA1 adenosine receptor, the affinity corresponds to a Ki of 36.9 nM.

Consider `Cc1ccc(-c2nc3cc(C(=O)NCc4ccccc4Br)cc(N)n3n2)s1` [Example 200, 5-Amino-2-(5-methyl-thiophen-2-yl)-[1,2,4]triazolo[1,5-a]pyridine-7-carboxylic acid 2-bromo-benzylamide], for which, in assay [1], the Ki came to 22 nM and the “selectivity (A1/A2a)” value is on record as 1.7. Also, the affinity on HA1 adenosine receptor, expressed as Ki, was 37.9 nM.

Turning to `COc1ccccc1CNC(=O)c1cc(N)n2nc(-c3ccc(C)s3)nc2c1` [Example 201, 5-Amino-2-(5-methyl-thiophen-2-yl)-[1,2,4]triazolo[1,5-a]pyridine-7-carboxylic acid 2-methoxy-benzylamide], in assay [1], the Ki came to 31.3 nM and the “selectivity (A1/A2a)” value is 1.1. The compound also came in with a Ki at HA1 adenosine receptor of 33 nM.

As for `COc1cc(CNC(=O)c2cc(N)n3nc(-c4ccc(C)s4)nc3c2)cc(OC)c1OC` [Example 202, 5-Amino-2-(5-methyl-thiophen-2-yl)-[1,2,4]triazolo[1,5-a]pyridine-7-carboxylic acid 3,4,5-trimethoxy-benzylamide], in assay [1], the inhibition constant Ki turned out to be 310 nM and the “selectivity (A1/A2a)” value is 2.2. The compound further registered a Ki at HA1 adenosine receptor of 678 nM.

On to `Cc1ccc(-c2nc3cc(C(=O)NC4CCc5ccccc54)cc(N)n3n2)s1` (stereo not drawn) [Example 203, 5-Amino-2-(5-methyl-thiophen-2-yl)-[1,2,4]triazolo[1,5-a]pyridine-7-carboxylic acid indan-1-ylamide], for which the Ki in assay [1] came to 60 nM; on HA1 adenosine receptor it was 66.2 nM. The “selectivity (A1/A2a)” value in assay [1] is recorded as 1.1.

Turning to `CN(Cc1ccccc1)C(=O)c1cc(N)n2nc(-c3nccs3)nc2c1` [Example 204, 5-Amino-2-thiazol-2-yl-[1,2,4]triazolo[1,5-a]pyridine-7-carboxylic acid benzyl-methyl-amide], the figures for the Ki (in assay [1]; at HA1 adenosine receptor) were 41.7 nM and 325 nM, respectively. For the same compound, in assay [1], the “selectivity (A1/A2a)” value is on record as 7.8.

For the compound `Nc1cc(C(=O)NCc2ccc(Cl)cc2)cc2nc(-c3nccs3)nn12` [Example 205, 5-Amino-2-thiazol-2-yl-[1,2,4]triazolo[1,5-a]pyridine-7-carboxylic acid 4-chloro-benzylamide], the Ki in assay [1] came out at 157 nM; on HA1 adenosine receptor, 294 nM. In assay [1], the “selectivity (A1/A2a)” value is 1.9.

As for `Nc1cc(C(=O)NCc2ccc(F)cc2)cc2nc(-c3nccs3)nn12` [Example 206, 5-Amino-2-thiazol-2-yl-[1,2,4]triazolo[1,5-a]pyridine-7-carboxylic acid 4-fluoro-benzylamide], the Ki in assay [1] turned out to be 126 nM; on HA1 adenosine receptor it was 657 nM. Besides, the “selectivity (A1/A2a)” value in assay [1] is on record as 5.2.

For the compound `COc1ccc(CNC(=O)c2cc(N)n3nc(-c4nccs4)nc3c2)cc1` [Example 207, 5-Amino-2-thiazol-2-yl-[1,2,4]triazolo[1,5-a]pyridine-7-carboxylic acid 4-methoxy-benzylamide], in assay [1], the Ki came to 187 nM and the “selectivity (A1/A2a)” value is given as 2.8. At HA1 adenosine receptor, this compound showed a Ki of 533 nM.

In the case of `COc1ccc(CNC(=O)c2cc(N)n3nc(-c4nccs4)nc3c2)cc1OC` [Example 208, 5-Amino-2-thiazol-2-yl-[1,2,4]triazolo[1,5-a]pyridine-7-carboxylic acid 3,4-dimethoxy-benzylamide], the figures for the Ki (in assay [1]; at HA1 adenosine receptor) were 316 nM and 1860 nM, respectively. The “selectivity (A1/A2a)” value in assay [1] is reported as 5.9.

As to `Cc1ccc(-c2nc3cc(C(=O)NCc4ccccc4)cc(N)n3n2)o1` [Example 210, 5-Amino-2-(5-methyl-furan-2-yl)-[1,2,4]triazolo[1,5-a]pyridine-7-carboxylic acid benzylamide], in assay [1], the Ki amounted to 48.6 nM and the “selectivity (A1/A2a)” value is on record as 6.1. At HA1 adenosine receptor, this compound showed a Ki of 299 nM.

`Cc1ccc(-c2nc3cc(C(=O)NC(C)c4ccccc4)cc(N)n3n2)o1` (stereo not drawn) [Example 211, 5-Amino-2-(5-methyl-furan-2-yl)-[1,2,4]triazolo[1,5-a]pyridine-7-carboxylic acid (1-phenyl-ethyl)-amide]: in assay [1], the Ki worked out at 57.3 nM and the “selectivity (A1/A2a)” value is listed as 5.2. At HA1 adenosine receptor, the affinity, expressed as Ki, was 298 nM.

Take `Cc1ccc(-c2nc3cc(C(=O)NCc4ccc(Cl)cc4)cc(N)n3n2)o1` [Example 212, 5-Amino-2-(5-methyl-furan-2-yl)-[1,2,4]triazolo[1,5-a]pyridine-7-carboxylic acid 4-chloro-benzylamide]: the figures for the inhibition constant Ki (in assay [1]; at HA1 adenosine receptor) were 190 nM and 634 nM, respectively. Besides, the “selectivity (A1/A2a)” value in assay [1] is 3.3.

`Cc1ccc(-c2nc3cc(C(=O)NCc4ccc(F)cc4)cc(N)n3n2)o1` [Example 213, 5-Amino-2-(5-methyl-furan-2-yl)-[1,2,4]triazolo[1,5-a]pyridine-7-carboxylic acid 4-fluoro-benzylamide]: in assay [1], the Ki worked out at 73.2 nM and the “selectivity (A1/A2a)” value is 4.7. This compound also came in with an inhibition constant Ki at HA1 adenosine receptor of 343 nM.

Consider `COc1ccccc1CNC(=O)c1cc(N)n2nc(-c3ccc(C)o3)nc2c1` [Example 214, 5-Amino-2-(5-methyl-furan-2-yl)-[1,2,4]triazolo[1,5-a]pyridine-7-carboxylic acid 2-methoxy-benzylamide], for which the Ki was 14.6 nM in assay [1] and 111 nM at HA1 adenosine receptor. For the same compound, the “selectivity (A1/A2a)” value in assay [1] is listed as 7.6.

For `COc1ccc(CNC(=O)c2cc(N)n3nc(-c4ccc(C)o4)nc3c2)cc1` [Example 215, 5-Amino-2-(5-methyl-furan-2-yl)-[1,2,4]triazolo[1,5-a]pyridine-7-carboxylic acid 4-methoxy-benzylamide], in assay [1], the Ki was 295 nM and the “selectivity (A1/A2a)” value was 5.2. Besides, the Ki on HA1 adenosine receptor was 1540 nM.

Regarding `Nc1cc(C(=O)NCc2ccccc2)cc2nc(-c3ccccc3)nn12` [Example 216, 5-Amino-2-phenyl-[1,2,4]triazolo[1,5-a]pyridine-7-carboxylic acid benzylamide], in assay [1], the Ki was 64.1 nM and the “selectivity (A1/A2a)” value is 2.3. This compound also had a Ki at HA1 adenosine receptor of 149 nM.

For `CC(NC(=O)c1cc(N)n2nc(-c3ccccc3)nc2c1)c1ccccc1` (stereo not drawn) [Example 217, 5-Amino-2-phenyl-[1,2,4]triazolo[1,5-a]pyridine-7-carboxylic acid (1-phenyl-ethyl)-amide], in assay [1], the inhibitory constant (Ki) was 84.6 nM and the “selectivity (A1/A2a)” value is reported as 0.9. On HA1 adenosine receptor, this compound had a Ki of 72.6 nM.

As to `Nc1cc(C(=O)NCc2ccccc2Cl)cc2nc(-c3ccccc3)nn12` [Example 218, 5-Amino-2-phenyl-[1,2,4]triazolo[1,5-a]pyridine-7-carboxylic acid 2-chloro-benzylamide], the Ki in assay [1] stood at 47.2 nM; on HA1 adenosine receptor, 116 nM. For the same compound, the “selectivity (A1/A2a)” value in assay [1] is 2.5.

Take `Nc1cc(C(=O)NCc2ccccc2Br)cc2nc(-c3ccccc3)nn12` [Example 219, 5-Amino-2-phenyl-[1,2,4]triazolo[1,5-a]pyridine-7-carboxylic acid 2-bromo-benzylamide]: in assay [1], the inhibition constant (Ki) turned out to be 30 nM and the “selectivity (A1/A2a)” value is 4.4. The compound further came in with a Ki on HA1 adenosine receptor of 133 nM.

With `COc1ccccc1CNC(=O)c1cc(N)n2nc(-c3ccccc3)nc2c1` [Example 220, 5-Amino-2-phenyl-[1,2,4]triazolo[1,5-a]pyridine-7-carboxylic acid 2-methoxy-benzylamide], in assay [1], the Ki was found to be 29.2 nM and the “selectivity (A1/A2a)” value is listed as 1.7. At HA1 adenosine receptor, the Ki was determined as 48.3 nM.

`CCN(C(=O)c1cc(N)n2nc(-c3ccoc3)nc2c1)C(C)C` [Example 221, 5-Amino-2-furan-3-yl-[1,2,4]triazolo[1,5-a]pyridine-7-carboxylic acid ethyl-isopropyl-amide]: the Ki in assay [1] amounted to 308 nM; on HA1 adenosine receptor, 2260 nM. In assay [1], the “selectivity (A1/A2a)” value is listed as 7.3.

Turning to `CN(C(=O)c1cc(N)n2nc(-c3ccoc3)nc2c1)C1CCCCC1` [Example 222, 5-Amino-2-furan-3-yl-[1,2,4]triazolo[1,5-a]pyridine-7-carboxylic acid cyclohexyl-methyl-amide], in assay [1], the inhibition constant (Ki) came to 241 nM and the “selectivity (A1/A2a)” value was 8.5. The Ki at HA1 adenosine receptor was determined as 2050 nM.

In the case of `Nc1cc(C(=O)NC2CCc3ccccc32)cc2nc(-c3ccoc3)nn12` (stereo not drawn) [Example 223, 5-Amino-2-furan-3-yl-[1,2,4]triazolo[1,5-a]pyridine-7-carboxylic acid indan-1-ylamide], in assay [1], the Ki was 44.1 nM and the “selectivity (A1/A2a)” value is 9.4. Further, affinity at HA1 adenosine receptor was put at a Ki of 414 nM.

One may read the Ki as a dissociation constant, usually derived from enzyme kinetics or from competition with a known ligand.
